From PMC5379148, “A phase I study of intravenous and oral rucaparib in combination with chemotherapy in patients with advanced solid tumours” (British Journal of Cancer, 2017)
Like-named read-outs stand apart in the source and are kept apart here.

Key:
[1] = Plasma pharmacokinetics of rucaparib (LC-MS/MS, noncompartmental); conditions: human, plasma, po; for Cmax / AUC(0-t) / AUC(0-inf): geometric mean (CV%); for Tmax at 14 days / Tmax: median (minimum, maximum); for AUC(0-inf): AUCinf
Procedure: (§1) On cycle 1 days −10, −5, 1, and 14, plasma samples were obtained from all patients before rucaparib dosing and at 15 and 30 min, and at 1, 1.5, 2.5, 4, 6, 10, and 24 h after the start of the rucaparib administration (i.v. infusion (day −10) or oral (days −5, 1, and 14)). On cycle 1 days −10 and −5, samples were also obtained 48 h after the start of rucaparib administration. Rucaparib concentration was determined using liquid chromatography with tandem mass spectrometry.
(§2) Plasma clearance or apparent plasma clearance and steady-state volume of distribution were calculated for rucaparib. The oral bioavailability of rucaparib was calculated as the ratio of dose-normalised AUC0–t or AUCinf (data permitting) determined using oral rucaparib PK data collected on cycle 1 day −5 to that determined using the i.v. PK data collected on cycle 1 day −10. Pharmacokinetic parameters were summarised with the geometric mean and the coefficient of variation (CV). The ratio of Cmax and AUC0–24 of rucaparib administered in combination with chemotherapies to those of rucaparib alone was calculated and summarised, with mean and CV% to evaluate the effect of chemotherapies on the PK of rucaparib for both the i.v. dose (day −10) and oral dose (day −5).
(§3) The oral bioavailability of rucaparib was calculated as the ratio of dose-normalised AUC0-t or AUCinf (data permitting) determined using oral rucaparib PK data collected on cycle 1 day –5 to that determined using the intravenous PK data collected on cycle 1 day –10. The tmax was summarised with medians and ranges. The accumulation ratio after multiple oral rucaparib dosing (once daily) was assessed as the ratio of the AUC0-24 determined using PK collected on cycle 1 day 14 to the AUC0-24 after the cycle 1 day –5 lead-in dose. The ratio of the Cmax on day 14 to the Cmax on day –5 was also calculated. Additionally, the ratio of the AUC0-24 on cycle 1 day 14 to the AUCinf after the cycle 1 day –5 lead-in dose was calculated as an indication for any time-dependent change in rucaparib PK.

[2] = in vivo
Procedure: as §1, §2, §3

[3] = tested on: advanced ovarian or breast cancer associated with a germline BRCA1/2 mutation; design: method as in Drew et al, 2016; conditions: single agent, ref Drew et al, 2016, cited from earlier work
[4] = tested on: patients with advanced solid tumours; assay: Dose-limiting toxicities in cycle 1 and maximum tolerated dose; format: in vivo, human; conditions: days 1–14, with AUC5 carboplatin day 1, 21-day cycles
Procedure: Initially, at least three patients were treated at each dose level. If no DLT was observed, the dose was escalated for the next cohort of three patients. […] If no further DLT was observed, the next dose level was opened. […] When a dose was concluded to be above the MTD, the preceding lower dose was declared the MTD, but only if six patients had already been treated at this lower dose.
All patients who received at least one dose of study medication were evaluable for toxicity.

[5] = tested on: patients with advanced solid tumours; conditions: single-agent oral rucaparib; ref Kristeleit et al, 2014; cited from earlier work
[6] = clinical; conditions: human, in vivo; for half-life: t1/2
Procedure: as §1, §2, §3

[7] = 180 mg, single oral dose 180 mg, day 1
[8] = 180 mg, single oral dose 180 mg, day –5
[9] = 240 mg, single oral dose 240 mg, day 1
[10] = 240 mg, single oral dose 240 mg, day –5
[11] = 240 mg, oral 240 mg q.d. for 14 days
[12] = 360 mg, single oral dose 360 mg, day 1
[13] = 360 mg, single oral dose 360 mg, day –5
[14] = 360 mg, oral 360 mg q.d. for 14 days

For `CNCc1ccc(-c2[nH]c3cc(F)cc4c3c2CCNC4=O)cc1` [rucaparib], the Cmax [1, 7] was 527 ng/mL, the Cmax [1, 8] was 410 ng/mL and the Tmax at 14 days ([1]; 180 mg, oral 180 mg q.d. for 14 days) was 4 h. The Tmax [1, 7] was 6 h, the Tmax [1, 8] was 4 h and the AUC(0-t) ([1]; 240 mg, AUC0-24, oral 240 mg q.d. for 14 days) was 7560 ng·h/mL. The AUC(0-t) ([1]; 240 mg, AUC0-24, single oral dose 240 mg, day 1) was 5130 ng·h/mL, the AUC(0-t) ([1]; 240 mg, AUC0-24, single oral dose 240 mg, day –5) was 5030 ng·h/mL and the AUC(0-inf) [1, 9] was 4370 ng·h/mL. For the same compound, the AUC(0-inf) [1, 10] was 6990 ng·h/mL, the Cmax [1, 11] was 527 ng/mL and the Cmax [1, 9] was 493 ng/mL. The Cmax [1, 10] was 442 ng/mL, the Tmax at 14 days [1, 11] was 4 h and the Tmax [1, 9] was 4 h. For the same compound, the Tmax [1, 10] was 4 h, the AUC(0-t) ([1]; 360 mg, AUC0-24, oral 360 mg q.d. for 14 days) was 15600 ng·h/mL and the AUC(0-t) ([1]; 360 mg, AUC0-24, single oral dose 360 mg, day 1) was 8280 ng·h/mL. It also gave an AUC(0-t) ([1]; 360 mg, AUC0-24, single oral dose 360 mg, day –5) of 9170 ng·h/mL, an AUC(0-inf) [1, 12] of 9980 ng·h/mL and an AUC(0-inf) [1, 13] of 11000 ng·h/mL. It also gave a Cmax [1, 14] of 1050 ng/mL, a Cmax [1, 12] of 697 ng/mL and a Cmax [1, 13] of 814 ng/mL. It also gave a Tmax at 14 days [1, 14] of 4 h, a Tmax [1, 12] of 4 h and a Tmax [1, 13] of 4 h. The “change in t1/2 at steady state compared with a single dose” value ([2]; human) was “no change”, the “Ratio of rucaparib AUC0–24, day 1/day −10” value ([2]; human, iv, 24 mg) was 1.02 (15) and the “Ratio of rucaparib Cmax, day 1/day −10” value ([2]; human, iv, 24 mg) was 1.03 (16). For the same compound, the “average increase of steady-state AUC0–24 compared with a single dose” value ([2]; human, po) was 61%, the CL/F ([2]; human, po, 12 mg) was 53.4 (39.7) L h^–1 and the CL/F ([2]; human, po, 36 mg) was 32.7 (41.9) L h^–1. The CL/F ([2]; human, po, 48 mg) was 52.1 (150) L h^–1, the CL/F ([2]; human, po, 72 mg) was 65.9 (49.4) L h^–1 and the “AR, accumulation ratio [AUC0-24, Day 14/AUC0-24, Day -5]” value (from here on “AR, accumulation ratio”) ([2]; human, po, 80 mg) was 1.19 (-). The “ARcm, accumulation ratio of Cmax on day 14 to Cmax on day –5” value (“ARcm, accumulation ratio of Cmax” for short) ([2]; human, po, 80 mg) was 1.50 (-), the “AUC ratio [time-dependent linearity]” value ([2]; human, po, 80 mg) was 0.655 (-) and the “AR, accumulation ratio” value ([2]; human, po, 120 mg) was 1.49 (104). For the same compound, the “ARcm, accumulation ratio of Cmax” value ([2]; human, po, 120 mg) was 1.41 (99.8), the “AUC ratio [time-dependent linearity]” value ([2]; human, po, 120 mg) was 1.14 (101) and the “AR, accumulation ratio” value ([2]; human, po, 180 mg) was 1.36 (8.48). For the same compound, the “ARcm, accumulation ratio of Cmax” value ([2]; human, po, 180 mg) was 1.11 (31.1), the “AUC ratio [time-dependent linearity]” value ([2]; human, po, 180 mg) was 0.785 (13.3) and the CL/F ([2]; human, po, 180 mg) was 21.4 (68.6) L h^–1. The “AR, accumulation ratio” value ([2]; human, po, 240 mg) was 1.64 (28.2), the “ARcm, accumulation ratio of Cmax” value ([2]; human, po, 240 mg) was 1.30 (29.7) and the “AUC ratio [time-dependent linearity]” value ([2]; human, po, 240 mg) was 1.01 (31.6). The “AR, accumulation ratio” value ([2]; human, po, 360 mg) was 1.7 (46.3), the “ARcm, accumulation ratio of Cmax” value ([2]; human, po, 360 mg) was 1.29 (46.1) and the “AUC ratio [time-dependent linearity]” value ([2]; human, po, 360 mg) was 1.06 (53.1). For the same compound, the “dose dependence of exposure” value [2] was “increased approximately dose proportionally”, the “effect of carboplatin coadministration on rucaparib oral PK” value ([2]; po) was “not affected” and the response rate ([3]; continuous oral dosing) was 18%. For the same compound, the response rate ([3]; intermittent intravenous (i.v.) dosing) was 2%, the “MTD of oral rucaparib in the combination” value [4] was 240 mg once daily (q.d.) and the “recommended phase II dose” value [5] was 600 mg twice daily. The clearance ([6]; iv, 12 mg) was 270 mL/min, the half-life ([6]; iv, 12 mg) was 18.7 h and the clearance ([6]; iv, 18 mg) was 307 mL/min. The half-life ([6]; iv, 18 mg) was 16.4 h, the clearance ([6]; iv, 24 mg) was 233 mL/min and the half-life ([6]; iv, 24 mg) was 20.7 h. It also gave a clearance ([6]; iv, 27 mg) of 237 mL/min, a half-life ([6]; iv, 27 mg) of 16.8 h and a clearance ([6]; iv, 40 mg) of 232 mL/min. It also gave a half-life ([6]; iv, 40 mg) of 11.9 h, a half-life ([6]; po, 12 mg) of 18.6 h and a half-life ([6]; po, 36 mg) of 18 h. The half-life ([6]; po, 48 mg) was 20.3 h, the half-life ([6]; po, 72 mg) was 25.1 h and the half-life ([6]; po, 80 mg) was 20.1 h. It also gave a half-life ([6]; po, 120 mg) of 13.3 h, a half-life ([6]; po, 180 mg) of 19.2 h and a half-life ([6]; po, 240 mg) of 17.7 h. It also gave a half-life ([6]; po, 360 mg) of 18.2 h and a half-life [6] of about 17 h.
